Experimental data as given in US20050250822A1, “Substituted benzanilide compound and noxious organism controlling agent” (priority 2002, published 2005).
Where two headings read alike, the source gives them in different places.

How the values were obtained:
[1] = system: diamondback moths (Plutella xylostella) with second instar larvae; assay: Insecticidal test against diamondback moth (leaf dip); assay type: in vivo; conditions: foliar, 144 h, read-out: insecticidal rate (rate of dead insects)
Procedure: Insecticidal Test Against Diamondback Moth
(§1) A 10% emulsifiable concentrate (depending on the compounds, 25% wettable powder was applied for the test) of the compound of the present invention was diluted with water containing a spreading agent to prepare a chemical solution with a concentration of 100 ppm. To the chemical solution was dipped leaves of Chinese olive for about 10 seconds, and after air-drying, they were placed in a laboratory dish, then, 10 diamondback moths (Plutella xylostella) with second instar larvae per the dish were released therein, and the dish was covered with a lid having holes and contained at a thermostat chamber at 25° C. A number of dead insect(s) after 6 days was counted and a rate of dead insects was calculated in the same manner as in Test Example 1. Incidentally, the test was carried out with two districts.

[2] = system: Common cutworms (Spodoptera litura) with second instar larvae; assay: Insecticidal test against common cutworm (leaf dip); assay type: in vivo; conditions: foliar, 144 h, read-out: insecticidal rate (rate of dead insects)
Procedure: Insecticidal Test Against Common Cutworm
as §1, with “10 Common cutworms (Spodoptera litura)” for “10 diamondback moths (Plutella xylostella)”, “calculated by” for “calculated in”, “the following calculation formula.” for “the same manner as in Test Example 1.”, “districts. Rate of dead insects (%)=(Number of dead insects/Number of released insects)×100” for “districts.”

[3] = chemical solution 100 ppm, leaf dip, 25° C., dead insects counted after 6 days

For `Cc1cc(C2(C(F)(F)F)CC(c3ccc(C(N)=O)cc3)=NO2)ccc1NC(=O)c1cccc(I)c1C(=O)NC(C)C` (centres unmarked) [2-048, N^1-[4-[3-(4-carbamoylphenyl)-5-trifluoromethyl-4,5-dihydroisoxazol-5-yl]-2-methylphenyl]-3-iodo-N^2-isopropylphthalic diamide], the pest or weed control at 100 ppm [1, 3] was no less than 80% and the pest or weed control at 100 ppm [2, 3] was no less than 80%.
In the case of `Cc1cc(C2(C(F)(F)F)OCC(c3ccc(Cl)cc3)S2)ccc1NC(=O)c1cccc(I)c1C(=O)NC(C)C` (centres unmarked) [7-09, N^1-[4-[4-(4-chlorophenyl)-2-trifluoromethyl-1,3-oxathiolan-2-yl]-2-methylphenyl]-3-iodo-N^2-isopropylphthalic diamide], the pest or weed control at 100 ppm [1, 3] is reported as no less than 80%.
In the case of `Cc1cc(C2(c3ccc(Cl)cc3)CC2(F)F)ccc1NC(=O)c1cccc(I)c1C(=O)NC(C)CS(C)(=O)=O` (centres unmarked) [9-065, N^1-[4-(2,2-difluoro-1-(4-chlorophenyl)cyclopropyl)-2-methylphenyl]-3-iodo-N^2-(1-methyl-2-methylsulfonylethyl)phthalic diamide], the pest or weed control at 100 ppm [1, 3] is reported as no less than 80% and the pest or weed control at 100 ppm [2, 3] is reported as no less than 80%.
In the case of `CC1=NC(c2ccc(Cl)cc2)=CC(c2ccc(NC(=O)c3cccc(I)c3C(=O)NC(C)C)c(C)c2)(C(F)(F)F)N1` (centres unmarked) [8-01, N^1-[4-[6-(4-chlorophenyl)-2-methyl-4-trifluoromethyl-3,4-dihydropyrimidin-4-yl]-2-methylphenyl]-3-iodo-N^2-isopropylphthalic diamide], the pest or weed control at 100 ppm [1, 3] is reported as no less than 80% and the pest or weed control at 100 ppm [2, 3] is reported as no less than 80%.
`Cc1cc(C2(C(F)(F)F)C=NC(c3ccccc3)C2)ccc1NC(=O)c1cccc(I)c1C(=O)NC(C)C` (centres unmarked) [7-04, 3-Iodo-N^2-isopropyl-N^1-[2-methyl-4-(2-phenyl-4-trifluoromethyl-3,4-dihydro-2H-pyrrol-4-yl)phenyl]phthalic diamide] showed a pest or weed control at 100 ppm [1, 3] of no less than 80% and a pest or weed control at 100 ppm [2, 3] of no less than 80%.
In the case of `Cc1cc(C2(C(F)(F)F)ON=C(c3ccc(F)cc3)O2)ccc1NC(=O)c1cccc(I)c1C(=O)NC(C)C` (centres unmarked) [4-05, N^1-[4-[3-(4-fluorophenyl)-5-trifluoromethyl-1,4,2-dioxazolin-5-yl]-2-methylphenyl]-3-iodo-N 2-isopropylphthalic diamide], the pest or weed control at 100 ppm [1, 3] is reported as no less than 80% and the pest or weed control at 100 ppm [2, 3] is reported as no less than 80%.
Work on `Cc1cc(C2(C(F)(F)F)CC(C(F)(F)F)=NO2)ccc1NC(=O)c1cccc(I)c1C(=O)NC(C)C` (centres unmarked) [1-013, 3-Iodo-N^2-isopropyl-N^1-[2-methyl-4-(3,5-bistrifluoromethyl-4,5-dihydroisoxazol-5-yl)phenyl]phthalic diamide] yielded a pest or weed control at 100 ppm [1, 3] of no less than 80%.
In the case of `Cc1cc(C2(C(F)(F)F)CC(c3ccc(Cl)cc3)=NN2C)ccc1NC(=O)c1cccc(I)c1C(=O)NC(C)C` (centres unmarked) [6-04, N^1-[4-[3-(4-chlorophenyl)-1-methyl-5-trifluoromethyl-4,5-dihydropyrazol-5-yl]-2-methylphenyl]-3-iodo-N^2-isopropylphthalic diamide], the pest or weed control at 100 ppm [1, 3] is reported as no less than 80% and the pest or weed control at 100 ppm [2, 3] is reported as no less than 80%.
With `CC1=NOC(c2ccc(NC(=O)c3cccc(I)c3C(=O)NC(C)C)c(C)c2)(C(F)(F)F)C1` (centres unmarked) [1-006, 3-Iodo-N^2-isopropyl-N^1-[2-methyl-4-(3-methyl-5-trifluoromethyl-4,5-dihydroisoxazol-5-yl)phenyl]phthalic diamide] the pest or weed control at 100 ppm [1, 3] was no less than 80% and the pest or weed control at 100 ppm [2, 3] was no less than 80%.
`Cc1cc(C2(C(F)(F)F)CC(C#N)=C(c3ccccc3)O2)ccc1NC(=O)c1cccc(I)c1C(=O)NC(C)C` (centres unmarked) [4-01, N^1-[4-(3-cyano-2-phenyl-5-trifluoromethyl-4,5-dihydrofuran-5-yl)-2-methylphenyl]-3-iodo-N 2-isopropylphthalic diamide] gave a pest or weed control at 100 ppm [1, 3] of no less than 80%.
Work on `CCOC(=O)C1=NOC(c2ccc(NC(=O)c3c(I)cccc3C(=O)NC(C)C)c(C)c2)(C(F)(F)F)C1` (centres unmarked) [1-020, N^1-[4-(3-ethoxycarbonyl-5-trifluoromethyl-4,5-dihydroisoxazol-5-yl)-2-methylphenyl]-6-iodo-N^2-isopropylphthalic diamide] yielded a pest or weed control at 100 ppm [1, 3] of no less than 80%.
Work on `CSCC(C)NC(=O)c1c(I)cccc1C(=O)Nc1ccc(C2(c3ccc(Cl)cc3)CC2(Cl)Cl)cc1C` (centres unmarked) [9-041, N^1-[4-(2,2-dichloro-1-(4-chlorophenyl)cyclopropyl)-2-methylphenyl]-3-iodo-N^2-(1-methyl-2-methylthioethyl)phthalic diamide] yielded a pest or weed control at 100 ppm [1] of no less than 80% and a pest or weed control at 100 ppm [2] of no less than 80%.
In the case of `Cc1cc(C2(C(F)(F)F)CC(c3ccc(F)cc3)=NO2)ccc1NC(=O)c1cccc([N+](=O)[O-])c1C(=O)NC(C)C` (centres unmarked) [2-167, N^1-[4-[3-(4-fluorophenyl)-5-trifluoromethyl-4,5-dihydroisoxazol-5-yl]-2-methylphenyl]-3-nitro-N^2-isopropylphthalic diamide], the pest or weed control at 100 ppm [1, 3] is reported as no less than 80% and the pest or weed control at 100 ppm [2, 3] is reported as no less than 80%.
Work on `CCN(CC)C(=O)c1c(I)cccc1C(=O)Nc1ccc(C2(C(F)(F)F)CC(c3ccc(S(C)(=O)=O)cc3)=NO2)cc1C` (centres unmarked) [2-162, N^2, N^2-diethyl-3-iodo-N^1-[4-[3-(4-methylsulfonylphenyl)-5-trifluoromethyl-4,5-dihydroisoxazol-5-yl]-2-methylphenyl]phthalic diamide] yielded a pest or weed control at 100 ppm [1, 3] of no less than 80%.
`CC1=NN(c2ccc(Cl)cc2)C(c2ccc(NC(=O)c3cccc(I)c3C(=O)NC(C)C)c(C)c2)C1` (centres unmarked) [6-02, N^1-[4-[1-(4-chlorophenyl)-3-methyl-4,5-dihydropyrazol-5-yl]-2-methylphenyl]-3-iodo-N^2-isopropylphthalic diamide] showed a pest or weed control at 100 ppm [1, 3] of no less than 80%.
In the case of `Cc1cc(C2(C(F)(F)F)OCC(c3ccc(Cl)cc3)O2)ccc1NC(=O)c1cccc(I)c1C(=O)NC(C)C` (centres unmarked) [7-03, N^1-[4-[4-(4-chlorophenyl)-2-trifluoromethyl-1,3-dioxolan-2-yl]-2-methylphenyl]-3-iodo-N^2-isopropylphthalic diamide], the pest or weed control at 100 ppm [1, 3] is reported as no less than 80% and the pest or weed control at 100 ppm [2, 3] is reported as no less than 80%.
Compound `Cc1cc(C2(C(F)(F)F)CC(n3cncn3)=NO2)ccc1NC(=O)c1cccc(I)c1C(=O)NC(C)C` (centres unmarked) [1-032, 3-Iodo-N^2-isopropyl-N^1-[4-[3-(1,2,4-triazol-1-yl)-5-trifluoromethyl-4,5-dihydroisoxazol-5-yl]-2-methylphenyl]phthalic diamide] has a pest or weed control at 100 ppm [1, 3] of no less than 80% and a pest or weed control at 100 ppm [2, 3] of no less than 80%.
Compound `CSCC(C)NC(=O)c1c(I)cccc1C(=O)Nc1ccc(C2(C(F)(F)F)CC(c3ccc(Cl)cc3)=NO2)cc1C` (centres unmarked) [2-095, N^1-[4-[3-(4-chlorophenyl)-5-trifluoromethyl-4,5-dihydroisoxazol-5-yl]-2-methylphenyl]-3-iodo-N^2-(1-methyl-2-methylthioethyl)phthalic diamide] has a pest or weed control at 100 ppm [1, 3] of no less than 80% and a pest or weed control at 100 ppm [2, 3] of no less than 80%.
`Cc1cc(C2(C(F)(F)F)CC(c3ccc(F)cc3)=NO2)ccc1NC(=O)c1cccc(N)c1C(=O)NC(C)C` (centres unmarked) [2-170, 3-Amino-N^1-[4-[3-(4-fluorophenyl)-5-trifluoromethyl-4,5-dihydroisoxazol-5-yl]-2-methylphenyl]-N^2-isopropylphthalic diamide] gave a pest or weed control at 100 ppm [1, 3] of no less than 80% and a pest or weed control at 100 ppm [2, 3] of no less than 80%.
Work on `Cc1cc(C2(C(F)(F)F)CN=C(c3ccc(Cl)cc3)S2)ccc1NC(=O)c1cccc(I)c1C(=O)NC(C)C` (centres unmarked) [4-04, N^1-[4-[2-(4-chlorophenyl)-5-trifluoromethyl-4,5-dihydrothiazol-5-yl]-2-methylphenyl]-3-iodo-N^2-isopropylphthalic diamide] yielded a pest or weed control at 100 ppm [1, 3] of no less than 80% and a pest or weed control at 100 ppm [2, 3] of no less than 80%.
`CSCC(C)NC(=O)c1c(I)cccc1C(=O)Nc1ccc(C2(c3ccc(Cl)cc3)CC2(F)F)cc1C` (centres unmarked) [9-026, N^1-[4-(2,2-difluoro-1-(4-chlorophenyl)cyclopropyl)-2-methylphenyl]-3-iodo-N^2-(1-methyl-2-methylthioethyl)phthalic diamide] gave a pest or weed control at 100 ppm [1, 3] of no less than 80% and a pest or weed control at 100 ppm [2, 3] of no less than 80%.
For `Cc1cc(C2(C(F)(F)C(F)(F)C(F)(F)F)CC(c3ccc(Cl)cc3)=NO2)ccc1NC(=O)c1cccc(I)c1C(=O)NC(C)C` (centres unmarked) [2-059, N^1-[4-[3-(4-chlorophenyl)-5-heptafluoropropyl-4,5-dihydroisoxazol-5-yl]-2-methylphenyl]-3-iodo-N^2-isopropylphthalic diamide], the pest or weed control at 100 ppm [1] was no less than 80% and the pest or weed control at 100 ppm [2] was no less than 80%.
Work on `Cc1cc(C2(C(F)(F)F)CC(c3ccc(C#N)cc3)=NO2)ccc1NC(=O)c1cccc(I)c1C(=O)NC(C)C` (centres unmarked) [2-046, N^1-[4-[3-(4-cyanophenyl)-5-trifluoromethyl-4,5-dihydroisoxazol-5-yl]-2-methylphenyl]-3-iodo-N^2-isopropylphthalic diamide] yielded a pest or weed control at 100 ppm [1, 3] of no less than 80% and a pest or weed control at 100 ppm [2, 3] of no less than 80%.
`CC1=NOC(c2ccc(NC(=O)c3c(I)cccc3C(=O)NC(C)C)c(C)c2)(C(F)(F)F)C1` (centres unmarked) [1-007, 6-iodo-N^2-isopropyl-N^1-[2-methyl-4-(3-methyl-5-trifluoromethyl-4,5-dihydroisoxazol-5-yl)phenyl]phthalic diamide] showed a pest or weed control at 100 ppm [1, 3] of no less than 80%.
